Measured values from patent US10138275B2, “Crystalline powder of cyclic peptide compound, preparation method for same, and uses thereof” (SHANGHAI TECHWELL BIOPHARMACEUTICAL CO., LTD, priority 2014, dated 2018).
Starred links: 1 amine or outer side, 2 acyl side, 3 side chain; linkers in the order of their positions; H or OH if unused. Positions of bridges follow the written chain, without caps; N, C: chain ends. Non-standard residues stand in square brackets, D forms with d. Residues, ends and D or L forms follow the SMILES beside them. *: point of attachment. hTyr(3S-OH,4S-OH,3'-OSO3H) = N[C@H](C(=O)O)[C@H](O)[C@@H](O)c1ccc(O)c(OS(=O)(=O)O)c1; Orn(4R-OH,5R-OH) = O=C([C@H](C[C@@H](O)[C@@H](O)N[*:3])N[*:1])[*:2]; Pro(3S-OH,4S-Me) = C[C@H]1CN[C@H](C(=O)O)[C@H]1O; X1 = CCCCCOc1ccc(-c2cc(-c3ccc(C(=O)*)cc3)no2)cc1; Gln(3R-OH) = NC(=O)C[C@@H](O)[C@H](N)C(=O)O; Hyp = O=C(O)[C@@H]1C[C@@H](O)CN1

Experiments:
[1] = Ratio of dry weight to wet weight (Dry/Wet) of filtered solids; format: physicochemical; settings: wet solids weighed after filtration, before drying
Text: As used herein, the term “Dry/Wet” and “ratio of dry weight to wet weight” can be used interchangeably, both of which refer to the ratio of the weight of a compound without solvent(s) to the weight of the compound with solvent(s). In the present invention, wet weight of crystals is obtained by filtering the crystallized solids until no noticeable droplet outflows and weighing the solids.

[2] = Filtration through a Buchner funnel until no noticeable droplet outflowed; format: physicochemical
Text: In this example, the precipitated solids from Examples 2-10 and Comparative Examples 1-3 were filtered through a Buchner funnel until no noticeable droplet outflowed, and the filtration processes were compared.

[3] = Vacuum-drying at 25° C. with a water system until no organic solvent detected by GC; purity by HPLC; format: physicochemical; settings: for time Needed (for drying): 25° C., vacuum-drying with a water system until no organic solvent detected by GC; for Purity before drying / Purity after drying: HPLC; for Purity before drying: 5 g of solids; for Purity after drying: vacuum-dried at 25° C. with a water system until no organic solvent detected by GC
Text: High performance liquid chromatography (HPLC) is a common method for determining the purity of a compound, wherein a liquid is used as the mobile phase and a high-pressure transfusion system is used for pumping the mobile phase, such as single solvents with different polarities, a mixture of solvents at different proportions, or buffers, into a column packed with a stationary phase. Each component is separated in the column, and then enters into a detector for detection, thereby analyzing a sample. In the present invention, HPLC is used for determining the purity of the compound of formula I and studying the stability of a sample. Conditions of the HPLC method are listed as follows:
Analysis Column: YMC-ODS 250×4.6 mm, 5 μm;
Mobile phase: acetonitrile:phosphate buffer (pH 3.0)=45:70;
Column temperature: 35° C.;
Diluent: aqueous phosphate buffer;
Detection wavelength: 210 nm;
Gas chromatography (GC) used to separate and measure trace impurities in a compound is an accurate, qualitative and quantitative method of analysis. In the present invention, the content of organic solvents in the crystalline powder of the compound of formula I obtained in the present invention is measured by gas chromatography (GC).
5 g of solids were prepared according to the methods of Examples 2-10 and Comparative Examples 1-3 respectively, placed at 25° C., and vacuum-dried together with a water system until no organic solvent was detected through GC. The time for drying was compared, and the purity of the sample was analyzed.

[4] = Ohigashi et al. 2006, cited from earlier work
[5] = Particle size distribution (d10, d50) by Malvern particle size analyzer / laser diffraction; format: physicochemical; settings: after drying
Experimental: […] Wherein, d10 and d50 are means known for indicating the particle size distribution. d50 refers to a value of particle size, and the size of 50 vol/% of particles is smaller than said value. D10 refers to a value of particle size, and the size of 10 vol/% of particles is smaller than said value. The preferred method for determining d10 and d50 is laser diffraction, d50 of the crystalline powder of the compound of formula I according to the present invention is determined as 10-100 um, and d10 is determined as 1-9 um. Preferably, d50 of the crystalline powder is 20-50 um, and d10 thereof is 1-5 um. Before solid-liquid separation, d50 of the crystalline powder of the compound of formula I is 10-100 um, and d10 thereof is 1-9 um. Preferably, d50 of the crystalline powder is 20-50 um, and d10 thereof is 3-6 um.

[6] = Bulk density of powder by cylinder measurement; format: physicochemical; settings: after drying
Experimental: “Bulk density of powder” is a measurement standard for the relative importance of the interaction between microparticles by comparing the bulk density and tapped density of the powder. Methods for measuring bulk density of powder are known in the art; for example, it can be determined by cylinder measurement, volumetric measurement, and container measurement. Bulk density of the crystalline powder of the compound of formula I according to the present invention is determined as less than 0.7 g/mL, preferably less than 0.6 g/mL, most preferably less than 0.5 g/mL, by cylinder measurement.

SMILES	ratio of dry weight to wet weight (Dry/Wet) [1]	Time for filtration [2] [min]	time Needed (for drying) [3] [h]	Purity before drying [3] [%]	Purity after drying [3] [%]	content of solvent in the precipitate ([4]; amorphous precipitate before drying)	Dry/Wet of the precipitate before drying ([4]; amorphous precipitate from acetone/ethyl acetate)	d10, particle size of the crystalline powder [5] [um]	d50, particle size of the crystalline powder [5] [um]	Bulk density [6] [g/mL]
CCCCCOc1ccc(-c2cc(-c3ccc(C(=O)N[C@H]4C[C@@H](O)[C@@H](O)NC(=O)[C@@H]5[C@@H](O)[C@@H](C)CN5C(=O)[C@H]([C@H](O)CC(N)=O)NC(=O)[C@H]([C@H](O)[C@@H](O)c5ccc(O)c(OS(=O)(=O)[O-])c5)NC(=O)[C@@H]5C[C@@H](O)CN5C(=O)[C@H]([C@@H](C)O)NC4=O)cc3)no2)cc1.[Na+] [Comparative Example 2, reference compound] (X1-[Orn(4R-OH,5R-OH)]T[Hyp][hTyr(3S-OH,4S-OH,3'-OSO3H)][Gln(3R-OH)][Pro(3S-OH,4S-Me)]; lactam 1-C)	0.13	150	30	98.82	96.21					
CCCCCOc1ccc(-c2cc(-c3ccc(C(=O)N[C@H]4C[C@@H](O)[C@@H](O)NC(=O)[C@@H]5[C@@H](O)[C@@H](C)CN5C(=O)[C@H]([C@H](O)CC(N)=O)NC(=O)[C@H]([C@H](O)[C@@H](O)c5ccc(O)c(OS(=O)(=O)[O-])c5)NC(=O)[C@@H]5C[C@@H](O)CN5C(=O)[C@H]([C@@H](C)O)NC4=O)cc3)no2)cc1.[Na+] [Comparative Example 3, reference compound] (X1-[Orn(4R-OH,5R-OH)]T[Hyp][hTyr(3S-OH,4S-OH,3'-OSO3H)][Gln(3R-OH)][Pro(3S-OH,4S-Me)]; lactam 1-C)	0.1	300	32	98.74	96.17					
CCCCCOc1ccc(-c2cc(-c3ccc(C(=O)N[C@H]4C[C@@H](O)[C@@H](O)NC(=O)[C@@H]5[C@@H](O)[C@@H](C)CN5C(=O)[C@H]([C@H](O)CC(N)=O)NC(=O)[C@H]([C@H](O)[C@@H](O)c5ccc(O)c(OS(=O)(=O)[O-])c5)NC(=O)[C@@H]5C[C@@H](O)CN5C(=O)[C@H]([C@@H](C)O)NC4=O)cc3)no2)cc1.[Na+] [compound of formula I, 5-[(1S,2S)-2-[(3S,6S,9S,11R,15S,18S,20R,21R,24S,25S,26S)-3-[(R)-2-carbamoyl-1-hydroxyethyl]-11,20,21,25-tetrahydroxy-15-[(R)-1-hydroxyethyl]-26-methyl-2,5,8,14,17,23-hexaoxo-18-[4-[5-(4-pentoxyphenyl)isoxazol-3-yl]benzoylamino]-1,4,7,13,16,22-hexaazatricyclo[22.3.0.0.0^9,13]heptacosan-6-yl]-1,2-dihydroxyethyl]-2-hydroxy phenyl sulfate] (X1-[Orn(4R-OH,5R-OH)]T[Hyp][hTyr(3S-OH,4S-OH,3'-OSO3H)][Gln(3R-OH)][Pro(3S-OH,4S-Me)]; lactam 1-C)						about 75%	0.25			
CCCCCOc1ccc(-c2cc(-c3ccc(C(=O)N[C@H]4C[C@@H](O)[C@@H](O)NC(=O)[C@@H]5[C@@H](O)[C@@H](C)CN5C(=O)[C@H]([C@H](O)CC(N)=O)NC(=O)[C@H]([C@H](O)[C@@H](O)c5ccc(O)c(OS(=O)(=O)[O-])c5)NC(=O)[C@@H]5C[C@@H](O)CN5C(=O)[C@H]([C@@H](C)O)NC4=O)cc3)no2)cc1.[Na+] [Example 4] (X1-[Orn(4R-OH,5R-OH)]T[Hyp][hTyr(3S-OH,4S-OH,3'-OSO3H)][Gln(3R-OH)][Pro(3S-OH,4S-Me)]; lactam 1-C)	0.61		9	99.64	99.64			5.1	50	0.55
CCCCCOc1ccc(-c2cc(-c3ccc(C(=O)N[C@H]4C[C@@H](O)[C@@H](O)NC(=O)[C@@H]5[C@@H](O)[C@@H](C)CN5C(=O)[C@H]([C@H](O)CC(N)=O)NC(=O)[C@H]([C@H](O)[C@@H](O)c5ccc(O)c(OS(=O)(=O)[O-])c5)NC(=O)[C@@H]5C[C@@H](O)CN5C(=O)[C@H]([C@@H](C)O)NC4=O)cc3)no2)cc1.[Na+] [Example 3] (X1-[Orn(4R-OH,5R-OH)]T[Hyp][hTyr(3S-OH,4S-OH,3'-OSO3H)][Gln(3R-OH)][Pro(3S-OH,4S-Me)]; lactam 1-C)	0.52		6.5	99.63	99.61			3.7	43.1	0.43
CCCCCOc1ccc(-c2cc(-c3ccc(C(=O)N[C@H]4C[C@@H](O)[C@@H](O)NC(=O)[C@@H]5[C@@H](O)[C@@H](C)CN5C(=O)[C@H]([C@H](O)CC(N)=O)NC(=O)[C@H]([C@H](O)[C@@H](O)c5ccc(O)c(OS(=O)(=O)[O-])c5)NC(=O)[C@@H]5C[C@@H](O)CN5C(=O)[C@H]([C@@H](C)O)NC4=O)cc3)no2)cc1.[Na+] [Example 6] (X1-[Orn(4R-OH,5R-OH)]T[Hyp][hTyr(3S-OH,4S-OH,3'-OSO3H)][Gln(3R-OH)][Pro(3S-OH,4S-Me)]; lactam 1-C)	0.6		8.5	99.61	99.6				48.7	0.49
CCCCCOc1ccc(-c2cc(-c3ccc(C(=O)N[C@H]4C[C@@H](O)[C@@H](O)NC(=O)[C@@H]5[C@@H](O)[C@@H](C)CN5C(=O)[C@H]([C@H](O)CC(N)=O)NC(=O)[C@H]([C@H](O)[C@@H](O)c5ccc(O)c(OS(=O)(=O)[O-])c5)NC(=O)[C@@H]5C[C@@H](O)CN5C(=O)[C@H]([C@@H](C)O)NC4=O)cc3)no2)cc1.[Na+] [Example 5] (X1-[Orn(4R-OH,5R-OH)]T[Hyp][hTyr(3S-OH,4S-OH,3'-OSO3H)][Gln(3R-OH)][Pro(3S-OH,4S-Me)]; lactam 1-C)	0.66		10	99.52	99.47			9	97.7	0.6
CCCCCOc1ccc(-c2cc(-c3ccc(C(=O)N[C@H]4C[C@@H](O)[C@@H](O)NC(=O)[C@@H]5[C@@H](O)[C@@H](C)CN5C(=O)[C@H]([C@H](O)CC(N)=O)NC(=O)[C@H]([C@H](O)[C@@H](O)c5ccc(O)c(OS(=O)(=O)[O-])c5)NC(=O)[C@@H]5C[C@@H](O)CN5C(=O)[C@H]([C@@H](C)O)NC4=O)cc3)no2)cc1.[Na+] [Example 7] (X1-[Orn(4R-OH,5R-OH)]T[Hyp][hTyr(3S-OH,4S-OH,3'-OSO3H)][Gln(3R-OH)][Pro(3S-OH,4S-Me)]; lactam 1-C)	0.69		9.5	99.65	99.57			1	10	0.6
